# US12497515B2, “Fluorogenic pH-sensitive compounds and their methods of use” (LIFE TECHNOLOGIES CORPORATION, priority 2020, dated 2025)
# Assays:
# [1] = pH response kinetics (ring opening, absorbance at 637 nm); format: physicochemical; settings: for pH response kinetics: stock in phosphate buffer pH 7.4 mixed with phosphate buffer pH 3.13, room temperature
# Protocol: The kinetics of the ring opening of Compound A, Compound C, and Compound H were studied by measuring absorbance changes at 637 nm (absorption maxima of the ring-opening states) with UV-Vis spectroscopy. Stock solutions of the three dyes were prepared in pH 7.4 phosphate buffer with concentration of 1.8 mM. […] Stock solutions (10 μL) containing the dyes (1.8 mM) in phosphate buffer (pH 7.4) were diluted 300 times with phosphate buffer (pH 3.13) to a final concentration of […] at pH 3.13. The absorption changes were recorded at room temperature at 637 nm.
# [2] = pKa of the free compound (pH profile of fluorescence intensity); format: physicochemical; settings: series of pH buffers
# Protocol: (§1) FIG. 6 provides the pH profile of fluorescence intensity of Compound C at room temperature. Fluorescence was measured using 636 nm ex, 654 nm em, with 5 nm bandpass. Solutions were diluted to 5 uM with a series of pH buffers in triplicate in a 96-well clear-bottom black walled plate. Samples were measured on a Tecan Infinite M100 plate reader via top-read. RFU=relative fluorescence units.
# as §1, with “FIG. 7” for “FIG. 6”, “Compound E” for “Compound C”, “with” for “with a series of”
# Fluorescence was measured using 636 nm excitation wavelength (ex), 654 nm emission wavelength (em), with 5 nm bandpass filter. Solutions were diluted to 5 uM with a series of pH buffers (see Table 3) in triplicate in a 96-well clear-bottom black walled plate. Samples were measured on a Tecan Infinite M100 plate reader via top-read.
# Fluorescence was measured using 636 nm ex, 654 nm em, with 5 nm bandpass. Solutions were diluted to 5 uM with pH buffers in triplicate in a 96-well clear-bottom black walled plate. Samples were measured on a Tecan Infinite M100 plate reader via top-read.
# Jurkat cells [3] = test: Apoptosis control experiments (CYQUANT Direct, PRESTOBLUE HS, CELLEVENT Caspase green); format: cell-based; settings: 2 uM overnight
# Protocol: In this study, Jurkat cells were grown in 0.1% DMSO vehicle control or 2 uM camptothecin overnight in normal cell culture conditions then harvested, counted, washed, labeled, and resuspended at matched total cell number at 2×10^6 cells per mL in complete culture medium and dispensed 100 uL (200,000 cells) per well (n=8 per measurement) before adding the indicated reagents for 1 hour. […] The apoptosis indicator CELLEVENT Caspase green (Thermo Fisher Scientific, Waltham, MA) was also added to the two samples matched in total cells per mL along with NUCBLUE Live (Thermo Fisher Scientific, Waltham, MA), and cells plated at 100,000 cells per well for HCA quantification on the […] CX5.
# RAW macrophages [4] = test: Phagocytosis of CD4 opsonized Jurkat cells labeled with compound; format: cell-based; settings: incubated with RAW macrophages 1-3 hours, 10×
# Protocol: In this study, Jurkat cells were grown as normal in complete medium then harvested, counted, washed, labeled, and resuspended per product description in complete culture medium before splitting into control and CD4 antibody treated samples. In brief, the cells were resuspended in PBS and labeled with either BSA control or CD4 antibody at 2 ug/mL for one hour at room temperature before washing 2× in PBS and adding to RAW macrophages.
# RAW macrophages [5] = test: Efferocytosis of labeled apoptotic Jurkat cells; format: cell-based; settings: incubated with RAW macrophages 1-3 hours, 4× and 10×
# Protocol: FIGS. 43-44 show the efferocytosis from apoptotic cells with Compound C. In this study, Jurkat cells were grown in 0.1% DMSO control or 2 uM camptothecin overnight in normal cell culture conditions then harvested, counted, washed, labeled and resuspended per product description in complete culture medium at matched density before adding to RAW macrophages for assays of efferocytosis, or the phagocytosis of apoptotic cells.
# Jurkat cells [6] = test: Toxicity and turn-on response of labeled cells (PRESTOBLUE Cell Health Assay, Cy5 imaging); format: cell-based
# Protocol: In this study, healthy Jurkat cells were grown and harvested in normal cell culture conditions, washed, counted, labeled and resuspended per product description in complete culture medium, and incubated overnight before testing for cell health and number with the PRESTOBLUE Cell Health Assay (Thermo Fisher Scientific, Waltham, MA). Cells with Compound C were, in parallel determinations, resuspended in the external reference pH buffer indicated and imaged on an EVOS M7000 for signal in the Cy5 channel from labeled cells at extracellular pH 4.5 (FIG. 42A, in red) and 7.5 (FIG. 42A, Inset). FIG. 42B is a graph showing control (left side) and compound C (right side).
compound,measurement,setting,value
CC1(C)C=C(CS(=O)(=O)O)c2cc3c(c4c2N1CCC4)Oc1c(cc2c4c1CCCN4C(C)(C)C=C2CS(=O)(=O)O)C31c2c(Cl)ccc(Cl)c2C(=O)N1CCOCCOCCOCCOCCC(=O)Oc1c(F)c(F)cc(F)c1F [Compound H],absorbance as share of the expected maximum value (A=0.93),[1]; after 6000 seconds (100 minutes) at pH 3.13,5%
same,absorbance at 637 nm,"[1]; after 6000 seconds (100 minutes) at pH 3.13, 6.6 μM",0.05
same,pH response kinetics,[1],slow
same,pKa,[2],5.2
CC1(C)C=C(CS(=O)(=O)O)c2cc3c(c4c2N1CCC4)Oc1c(cc2c4c1CCCN4C(C)(C)CC2CS(=O)(=O)O)C31c2c(Cl)ccc(Cl)c2C(=O)N1NC(=O)CCOCCOCCOCCOCCC(=O)Oc1c(F)c(F)cc(F)c1F (centres unmarked) [Compound B],pKa,[2],3.7
CC1(C)C=C(CS(=O)(=O)O)c2cc3c(c4c2N1CCC4)Oc1c(cc2c4c1CCCN4C(C)(C)C=C2CS(=O)(=O)O)C31c2c(Cl)ccc(Cl)c2C(=O)N1OCC(=O)Oc1c(F)c(F)cc(F)c1F [Compound F],pKa,[2],5.5
CC1(C)C=C(CS(=O)(=O)O)c2cc3c(c4c2N1CCC4)Oc1c(cc2c4c1CCCN4C(C)(C)CC2CS(=O)(=O)O)C31c2c(Cl)c(Cl)c(Cl)c(Cl)c2C(=O)N1NC(=O)CCOCCOCCOCCOCCC(=O)Oc1c(F)c(F)cc(F)c1F (centres unmarked) [Compound D],pKa,[2],4.3
CC1(C)C=C(CS(=O)(=O)O)c2cc3c(c4c2N1CCC4)Oc1c(cc2c4c1CCCN4C(C)(C)C=C2CS(=O)(=O)O)C31c2c(Cl)c(Cl)c(Cl)c(Cl)c2C(=O)N1OCCOCCOCCOCCC(=O)Oc1c(F)c(F)cc(F)c1F [Compound E],pKa,[2],4.67
CC1(C)C=C(CS(=O)(=O)O)c2cc3c(c4c2N1CCC4)Oc1c(cc2c4c1CCCN4C(C)(C)C=C2CS(=O)(=O)O)C31c2c(Cl)ccc(Cl)c2C(=O)N1CCN1CCN(C(=O)CCOCCOCCOCCOCCC(=O)ON2C(=O)CCC2=O)CC1 [Compound A],absorbance as share of the expected maximum value (A=0.93),[1]; after 3600 seconds (60 minutes) at pH 3.13,5%
same,absorbance at 637 nm,"[1]; after 3600 seconds (60 minutes) at pH 3.13, 6.6 μM",0.05
same,pH response kinetics,[1],slow
same,pKa,[2],5.2
"CC[C@@]1(O)C(=O)OCc2c1cc1n(c2=O)Cc2cc3ccccc3nc2-1 [Camptothecin, camptothecin]","apoptosis, intracellular caspase activity (CELLEVENT Caspase green)",Jurkat cells [3],substantial induction of apoptosis
same,live cell number (CYQUANT Direct),Jurkat cells [3],fewer live cells
same,overall vitality (PRESTOBLUE HS),Jurkat cells [3],decrease in overall vitality
CC(C)(ON1C(=O)c2c(Cl)ccc(Cl)c2C12c1cc3c4c(c1Oc1c2cc2c5c1CCCN5C(C)(C)C=C2CS(=O)(=O)O)CCCN4C(C)(C)C=C3CS(=O)(=O)O)C(=O)Oc1c(F)c(F)cc(F)c1F [Compound G],pKa,[2],6.5
CC1(C)C=C(CS(=O)(=O)O)c2cc3c(c4c2N1CCC4)Oc1c(cc2c4c1CCCN4C(C)(C)C=C2CS(=O)(=O)O)C31c2c(Cl)ccc(Cl)c2C(=O)N1OCCOCCOCCOCCC(=O)Oc1c(F)c(F)cc(F)c1F [Compound C],"phagocytosis signal, CD4 antibody treated vs control labeled Jurkat cells",RAW macrophages [4],signal preferentially appearing from the CD4 treated samples
same,"efferocytosis signal, camptothecin treated vs control labeled Jurkat cells",RAW macrophages [5],signal preferentially appearing from the camptothecin treated samples
same,absorption at 637 nm (A),"[1]; immediately after mixing pH 7.4 stock into pH 3.13 buffer, 6.6 μM, maximum, kept constant",0.93
same,pH response kinetics,[1],fast
same,toxicity to labeled cells vs sham labeled control,"Jurkat cells [6]; Jurkat cells, overnight, PRESTOBLUE",little toxicity
same,turn-on response of labeled cells,"Jurkat cells [6]; extracellular pH 4.5 vs 7.5, Cy5 channel",large fold turn-on response
same,pKa,[2],4.87
